Results: patent US20230293560A1, “METHOD FOR MODULATING THE BLADDER MICROBIOME TO IMPROVE BLADDER HEALTH” (Kimberly-Clark Worldwide, Inc., priority 2020, published 2023)
“And” between values parts separate entries of the source, which are not always exact repeats. Equal entries are not always repeated.

Key:
[1] = tested on: L. crispatus; experiment: High throughput assay screening of prebiotics; type: cell-based, Lactobacillus crispatus; parameters: key: ++: if growth and fermentation was equal to or greater than the positive control; +: if growth and fermentation was less than the positive control; +: if weak or no growth or fermentation; +^2: Bacteria demonstrated growth but no fermentation on the prebiotic; conditions: 2% w/v prebiotic in API 50 CHL media; for growth and fermentation vs positive control, Lc-4: L. crispatus KC18-1174-1, Vagina
Method: Most of the prebiotic compounds were initially tested in a high throughput assay screening process, described further in the Test Methods section herein, but three prebiotics (as noted in Table 3) were tested using a plate assay screening process as described in the Test Methods section herein. The prebiotics were tested against the commensal bacterial species of Lactobacillus crispatus, Lactobacillus gasseri, and Lactobacillus jensenii and against the pathogenic bacterial species of Streptococcus anginosus and Enterococcus faecalis as shown in Table 2. The bacterial species were taken from different sources, listed as culture collection, bladder, and vagina.
The results of the assay plate screening of the prebiotic compounds of Table 1 against the bacterial species of Table 2 is documented in Table 3 with the results being described by the following legend: • ++ if growth and fermentation was equal to or greater than the positive control • + if growth and fermentation was less than the positive control • […] if weak or no growth or fermentation • NT if not tested Some codes were not tested based on the use or non-use by the bacteria, as a way to efficiently move through the assay plate screening to the competition assay, described below.
• 1. Create a 2% w/v stock of prebiotic or positive control (glucose/dextrose) to be tested in API 50 CHL media (Biomerieux, Marcy-I'Étoile, France). API 50 CHL media contains minimal amounts of carbon for growth, and a bromocresol purple as a pH indicator of fermentation. Filter sterilize media with a […]. Store at 4-6° C. until use. • 2. Add 180 μL of media containing the prebiotic to a sterile, flat bottom 96-well microtiter plate (Corning, Corning, NY). • 3. From a freezer stock subculture the bacteria twice into De Man, Rogosa and Sharpe (MRS) broth (BD Difco, Becton Dickinson, Franklin Lakes, NJ), 37° C., stationary, anaerobic, overnight. • 4. From the last subculture, plate onto an MRS agar plate (Teknova, Hollister, CA) and grow 37° C., stationary, anaerobic, overnight. • 5. Create a bacterial suspension by using a sterile tipped swab to transfer colonies of bacteria into a PBS suspension blank to a 0.5 MacFarland (S. anginosus or E. faecalis) or a 1 MacFarland (Lactobacillus species) from the MRS agar plate. • 6. Enumerate the starting culture. • 7. Inoculate the media alone and media containing the prebiotic or positive control with 20 μL of the bacterial suspension. • 8. Place the plate into a spectrophotometer (Molecular Devices, San Jose, CA) and read the plate every 20 minutes for 24-48 hours. Read wavelengths (OD 430, OD 590, and OD 660). A color change to yellow caused by a drop in pH will be read by an increase in the OD430 value and a decrease in the OD590 value and is indicative of bacterial fermentation. An increase in OD660 values is indicative of an increase in turbidity and bacterial growth.

[2] = tested on: S. anginosus, KC18-1131-3B, Bladder (Sa-2); type: cell-based; conditions: Table 6, prebiotic 2%, one line per replicate
Method: (§1) Further testing was conducted to put the prebiotic compounds in competition assay testing, as further described in the test methods section herein. In the competition assay testing, each competition involved testing a single prebiotic compound with the commensal bacteria species of L. crispatus, KC18-1173-1, Bladder (“Lc-3”—Table 2) against the pathogenic bacterial species of S. anginosus, KC18-1131-3B, Bladder (“Sa-2”—Table 2).
(§2) • 1. An in house bacterial agar was created based on MRS agar (Kaplan and Hutkins, 2000) where the glucose is substituted for the prebiotic to be tested (either dextran MW ˜6,000, alpha-cyclodextrin, glucomannan, or pectin), bromocresol purple was included as a pH indicator. • 2. Bacteria were enumerated on each agar and color changes were recorded. Method for Competition Assay (Modified from “In Vitro Evaluation of Nutrients that Selectively Confer a Competitive Advantage to Lactobacilli” Vongsa et al, Beneficial Microbes 2016) • 1. Create 2% w/v stock of prebiotic or positive control (glucose/dextrose) as described above. • 2. From a freezer stock subculture the bacteria twice into De Man, Rogosa and Sharpe (MRS) broth (BD Difco, Becton Dickinson, Franklin Lakes, NJ), 37° C., stationary, anaerobic, overnight. • 3. From the last subculture, plate onto an MRS agar plate for L. crispatus KC18-1173-1 or blood agar for S. anginosus KC18-1131-3B, grow 37° C., stationary, anaerobic, overnight. • 4. Create a bacterial suspension by using a sterile tipped swab to transfer colonies of bacteria into a PBS suspension blank to a 2 MacFarland for both species. • 5. Enumerate the starting culture. • 6. Add 9.8 mL of prebiotic media into a 15 mL conical tube. • 7. Add 100 μL of the diluted bacteria to the media, incubate at 37° C., anaerobic, 48 hours. • 8. Harvest 100 μL from the tube containing the prebiotic and plate onto MRS agar and tryptic soy agar (TSA). • 9. Enumerate the bacteria on the MRS agar (both the L. crispatus and the S. anginosus). Small colonies are counted as S. anginosus and large colonies are counted as L. crispatus. • 10. Enumerate the bacteria on the TSA plate. […] Growth of the bacteria in the negative control (CHL media without prebiotic) was subtracted from the growth in the presence of the prebiotic or formulation.

[3] = tested on: L. crispatus, KC18-1173-1, Bladder (Lc-3); experiment: Competition assay, L. crispatus recovered; type: cell-based, Lactobacillus crispatus; conditions: Table 6, prebiotic 2%, one line per replicate
Method: as §1, §2

[4] = tested on: commensal and pathogenic bacterial species; experiment: Prebiotic screening, summary in words across species; type: cell-based; conditions: commensal (L. crispatus, L. gasseri, L. jensenii) and pathogenic (S. anginosus, E. faecalis) species
How it was run: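 Prebiotics at 2% w/v stock in API 50 CHL medium with bromocresol purple, inoculated with bacteria and read every 20 min for 24-48 h at OD430/590 (fermentation) and OD660 (growth), scored against a glucose control. Some tested on MRS-based agar with the prebiotic in place of glucose; competition assay with L. crispatus and S. anginosus incubated 48 h anaerobically at 37 °C, then enumerated on MRS and TSA.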

[5] = change vs start, background growth in CHL media subtracted, MRS agar

SMILES | growth and fermentation vs positive control, Lc-2 ([1]; L. crispatus KC16-7134-3C, Bladder) | growth and fermentation vs positive control, Lc-4 [1] | Sa-2 MRS Δ [2, 5] | Sa-2 TSA Δ ([2]; change vs start, background growth in CHL media subtracted, TSA) | Sa-2 MRS end ([2]; competition Sa-2 vs Lc-3, 48 hours, anaerobic, enumerated on MRS agar) | Sa-2 TSA end ([2]; competition Sa-2 vs Lc-3, 48 hours, enumerated on TSA) | Lc-3 MRS Δ [3, 5] | Lc-3 MRS end ([3]; competition Sa-2 vs Lc-3, 48 hours, enumerated on MRS agar) | overall outcome of the screening of Table 3, in words [4] | growth and fermentation vs positive control, Lc-3 ([1]; L. crispatus KC18-1173-1, Bladder)
CO[C@H]1O[C@H](CO)[C@@H](O)[C@H](O)[C@H]1O [Alpha-Methyl-D-Glucoside] | + | + | 0.45 Log CFU/mL and 0.55 Log CFU/mL | 0.62 Log CFU/mL and 0.41 Log CFU/mL | 7.15 Log CFU/mL and 7.40 Log CFU/mL | 7.47 Log CFU/mL and 7.54 Log CFU/mL | 1.39 Log CFU/mL and 0.70 Log CFU/mL | 6.52 Log CFU/mL and 6.78 Log CFU/mL | growing at least some of the commensal bacterial species and either having less growth than the positive control or almost no growth of the pathogenic bacterial species | 
OC[C@H]1O[C@H](OC[C@H]2OC(O)(CO)[C@@H](O)[C@@H]2O)[C@H](O)[C@@H](O)[C@@H]1O (stereo partly drawn) [Palatinose (isomaltulose), isomaltulose] |  | ++ |  |  |  |  |  |  | growing at least some of the commensal bacterial species and either having less growth than the positive control or almost no growth of the pathogenic bacterial species | ++
